According to patent US9518060B2, “Substituted pyrrolo[3,4-c]pyrazoles as PKC kinase inhibitors” (PFIZER INC., priority 2007, dated 2016):
Structures can show the parent of a compound that is named as a salt.

Each compound was assayed against Protein Kinase C beta 2 (PKCβII) (Homo sapiens (Human), UniProt P05771) (assay: PKCβII coupled spectrophotometric kinase assay (PK/LDH, NADH absorbance at 340 nm)). Conditions: apparent Ki, ATP competitive inhibition model (Morrison equation); 0.1 mM ATP, 5 nM PKC, 30° C.; read-out: Ki app.
Protein Kinase C beta 2 (PKCβII), sequence (P05771 other isoform, or with tags, fused parts or gaps): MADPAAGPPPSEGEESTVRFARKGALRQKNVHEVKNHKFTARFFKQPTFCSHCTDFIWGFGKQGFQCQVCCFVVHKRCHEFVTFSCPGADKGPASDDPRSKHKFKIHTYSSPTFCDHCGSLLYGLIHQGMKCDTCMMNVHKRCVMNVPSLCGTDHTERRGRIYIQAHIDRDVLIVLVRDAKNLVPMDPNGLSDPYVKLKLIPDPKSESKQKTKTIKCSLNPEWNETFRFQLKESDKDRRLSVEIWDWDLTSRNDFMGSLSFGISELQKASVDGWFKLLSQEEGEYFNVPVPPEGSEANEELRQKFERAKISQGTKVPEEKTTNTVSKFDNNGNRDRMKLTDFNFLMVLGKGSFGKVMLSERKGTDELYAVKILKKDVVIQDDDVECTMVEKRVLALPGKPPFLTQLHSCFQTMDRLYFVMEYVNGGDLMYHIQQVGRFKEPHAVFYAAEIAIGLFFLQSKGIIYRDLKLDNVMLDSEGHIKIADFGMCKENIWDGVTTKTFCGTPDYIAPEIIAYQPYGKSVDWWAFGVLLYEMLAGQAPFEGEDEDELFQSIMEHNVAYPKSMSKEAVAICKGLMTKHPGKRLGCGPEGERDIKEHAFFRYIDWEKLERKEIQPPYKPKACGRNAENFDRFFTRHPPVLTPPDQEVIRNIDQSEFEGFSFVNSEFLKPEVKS
Type: biochemical
Method in brief: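 PK/LDH-coupled ADP detection (NADH loss at 340 nm), 20 min at 30° C, pH 7.4; 5 nM PKCβII, 0.15 mM pseudosubstrate peptide, 0.1 mM ATP, with CaCl2, PS and PMA activators, 7.5% DMSO. Apparent Ki from initial velocities fitted to ATP-competitive Morrison model over 10,000–0.169 nM inhibitor.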

Row | SMILES | Ki [nM]
1 | CCN1C[C@H](C)N(C(=O)N2Cc3c(Nc4nc(OC)ncc4F)n[nH]c3C2(C)C)C[C@H]1C [Example AA1, 5-{[(2S,5R)-4-ethyl-2,5-dimethylpiperazin-1-yl]carbonyl}-N-(5-fluoro-2-methoxypyrimidin-4-yl)-6,6-dimethyl-1,4,5,6-tetrahydropyrrolo[3,4-c]pyrazol-3-amine] | 22.9
2 | COCc1ncc(F)c(Nc2n[nH]c3c2CN(C(=O)N2CC(C)(C)N(C)C[C@@H]2C)C3(C)C)n1 [Example J9, N-[5-fluoro-2-(methoxymethyl)pyrimidin-4-yl]-6,6-dimethyl-5-{[(2S)-2,4,5,5-tetramethylpiperazin-1-yl]carbonyl}-1,4,5,6-tetrahydropyrrolo[3,4-c]pyrazol-3-amine] | 2.1
3 | Cc1ncc(F)c(Nc2n[nH]c3c2CN(C(=O)N2C[C@@H](C)N(CC4(O)CCOCC4)C[C@@H]2C)C3(C)C)n1 [Example H8, 4-[((2R,5S)-4-{[3-[(5-fluoro-2-methylpyrimidin-4-yl)amino]-6,6-dimethyl-4,6-dihydropyrrolo[3,4-c]pyrazol-5(1H)-yl]carbonyl}-2,5-dimethylpiperazin-1-yl)methyl]tetrahydro-2H-pyran-4-ol] | 157
4 | Cc1ncc(F)c(Nc2n[nH]c3c2CN(C(=O)N2CC4(CCCC4)N(C)C[C@@H]2C)C3(C)C)n1 [Example A10, 5-{[(8S)-6,8-dimethyl-6,9-diazaspiro[4.5]dec-9-yl]carbonyl}-N-(5-fluoro-2-methylpyrimidin-4-yl)-6,6-dimethyl-1,4,5,6-tetrahydropyrrolo[3,4-c]pyrazol-3-amine] | 1.01
5 | COCCOc1ncc(F)c(Nc2n[nH]c3c2CN(C(=O)N2CC(C)(C)N(C)C[C@@H]2C)C3(C)C)n1 [Example K11, N-[5-fluoro-2-(2-methoxyethoxy)pyrimidin-4-yl]-6,6-dimethyl-5-{[(2S)-2,4,5,5-tetramethylpiperazin-1-yl]carbonyl}-1,4,5,6-tetrahydropyrrolo[3,4-c]pyrazol-3-amine] | 42.7
6 | Cc1ccnc(Nc2n[nH]c3c2CN(C(=O)N2C[C@@H](C)N(CC4CCOCC4)C[C@@H]2C)C3(C)C)n1 [Example J15, 5-{[(2S,5R)-2,5-dimethyl-4-(tetrahydro-2H-pyran-4-ylmethyl)piperazin-1-yl]carbonyl}-6,6-dimethyl-N-(4-methylpyrimidin-2-yl)-1,4,5,6-tetrahydropyrrolo[3,4-c]pyrazol-3-amine] | < 10
7 | COCCCN1C[C@H](C)N(C(=O)N2Cc3c(Nc4nc(OCC(F)(F)F)ncc4F)n[nH]c3C2(C)C)C[C@H]1C [Example K6, N-[5-fluoro-2-(2,2,2-trifluoroethoxy)pyrimidin-4-yl]-5-{[(2S,5R)-4-(3-methoxypropyl)-2,5-dimethylpiperazin-1-yl]carbonyl}-6,6-dimethyl-1,4,5,6-tetrahydropyrrolo[3,4-c]pyrazol-3-amine] | 0.376
8 | COCCOc1ncc(F)c(Nc2n[nH]c3c2CN(C(=O)C2(F)CCN(C)CC2)C3(C)C)n1 [Example L2, N-[5-fluoro-2-(2-methoxyethoxy)pyrimidin-4-yl]-5-[(4-fluoro-1-methylpiperidin-4-yl)carbonyl]-6,6-dimethyl-1,4,5,6-tetrahydropyrrolo[3,4-c]pyrazol-3-amine] | 168
9 | CCc1ncc(F)c(Nc2n[nH]c3c2CN(C(=O)N2C[C@@H](C)N(CC4CCOCC4)C[C@@H]2C)C3(C)C)n1 [Example J10, 5-{[(2S,5R)-2,5-dimethyl-4-(tetrahydro-2H-pyran-4-ylmethyl)piperazin-1-yl]carbonyl}-N-(2-ethyl-5-fluoropyrimidin-4-yl)-6,6-dimethyl-1,4,5,6-tetrahydropyrrolo[3,4-c]pyrazol-3-amine] | < 10
10 | Cc1ncc(F)c(Nc2n[nH]c3c2CN(C(=O)N2CC(CCO)N(C)C[C@@H]2C)C3(C)C)n1 (single isomer, unassigned) [Example H9] | 58.2
11 | CCNc1ncc(F)c(Nc2n[nH]c3c2CN(C(=O)N2C[C@@H](C)N(C)C[C@@H]2C)C3(C)C)n1 [Example B3, N^4-(6,6-dimethyl-5-{[(2S,5R)-2,4,5-trimethylpiperazin-1-yl]carbonyl}-1,4,5,6-tetrahydropyrrolo[3,4-c]pyrazol-3-yl)-N^2-ethyl-5-fluoropyrimidine-2,4-diamine] | 2.03
12 | CCN1C[C@H](C)N(C(=O)N2Cc3c(Nc4nc(C)ncc4F)n[nH]c3C2(C)C)C[C@H]1C [AA2, 5-{[(2S,5R)-4-ethyl-2,5-dimethylpiperazin-1-yl]carbonyl}-N-(5-fluoro-2-methylpyrimidin-4-yl)-6,6-dimethyl-1,4,5,6-tetrahydropyrrolo[3,4-c]pyrazol-3-amine] | 18.9
13 | Cc1ncc(F)c(Nc2n[nH]c3c2CN(C(=O)N2C[C@@H](C)N(CC4CCOCC4)C[C@@H]2C)C3(C)C)n1 [Example H6, 5-{[(2S,5R)-2,5-dimethyl-4-(tetrahydro-2H-pyran-4-ylmethyl)piperazin-1-yl]carbonyl}-N-(5-fluoro-2-methylpyrimidin-4-yl)-6,6-dimethyl-1,4,5,6-tetrahydropyrrolo[3,4-c]pyrazol-3-amine] | 14.9
14 | Cc1ccc(F)c(Nc2n[nH]c3c2CN(C(=O)C2(F)CCN(C)CC2)C3(C)C)n1 [Example J1, 5-[(4-fluoro-1-methylpiperidin-4-yl)carbonyl]-N-(3-fluoro-6-methylpyridin-2-yl)-6,6-dimethyl-1,4,5,6-tetrahydropyrrolo[3,4-c]pyrazol-3-amine] | 21.2
15 | Cc1ncc(F)c(Nc2n[nH]c3c2CN(C(=O)N2CC(CCO)N(C)C[C@@H]2C)C3(C)C)n1 (single isomer, unassigned) [Example H10] | 180
16 | Cc1ccc(F)c(Nc2n[nH]c3c2CN(C(=O)N2C[C@]4(C)CCCN4C[C@@H]2C)C3(C)C)n1 [Example J4, 5-{[(3S,8aS)-3,8a-dimethylhexahydropyrrolo[1,2-a]pyrazin-2(1H)-yl]carbonyl}-N-(3-fluoro-6-methylpyridin-2-yl)-6,6-dimethyl-1,4,5,6-tetrahydropyrrolo[3,4-c]pyrazol-3-amine] | 8.64
17 | Cc1ncc(F)c(Nc2n[nH]c3c2CN(C(=O)N2C[C@H](C)N(C)C[C@@H]2C)C3(C)C)n1 [AA4, 2(S),5(S)-{[dimethyl-4-methylpiperazin-1-yl]carbonyl}-N-(5-fluoro-2-methylpyrimidin-4-yl)-6,6-dimethyl-1,4,5,6-tetrahydropyrrolo[3,4-c]pyrazol-3-amine] | 147
18 | CN1CCC(F)(C(=O)N2Cc3c(Nc4nc(OCC(F)(F)F)ncc4F)n[nH]c3C2(C)C)CC1 [Example L4, 5-[(4-fluoro-1-methylpiperidin-4-yl)carbonyl]-N-[5-fluoro-2-(2,2,2-trifluoroethoxy)pyrimidin-4-yl]-6,6-dimethyl-1,4,5,6-tetrahydropyrrolo[3,4-c]pyrazol-3-amine] | 1.71
19 | CCOc1ncc(F)c(Nc2n[nH]c3c2CN(C(=O)N2CC(CCO)N(C)C[C@@H]2C)C3(C)C)n1 (stereo partly drawn) [Example K23, 2-((5S)-4-{[3-[(2-ethoxy-5-fluoropyrimidin-4-yl)amino]-6,6-dimethyl-4,6-dihydropyrrolo[3,4-c]pyrazol-5(1H)-yl]carbonyl}-1,5-dimethylpiperazin-2-yl)ethanol] | < 10
20 | Cc1ncc(F)c(Nc2n[nH]c3c2CN(C(=O)C2(F)CCN(C)CC2)C3(C)C)n1 [Example F1, 5-[(4-fluoro-1-methylpiperidin-4-yl)carbonyl]-N-(5-fluoro-2-methylpyrimidin-4-yl)-6,6-dimethyl-1,4,5,6-tetrahydropyrrolo[3,4-c]pyrazol-3-amine] | 39.9
21 | CCOc1ncc(F)c(Nc2n[nH]c3c2CN(C(=O)N2C[C@@H](C)N(CCOC)C[C@@H]2C)C3(C)C)n1 [Example K4, N-(2-ethoxy-5-fluoropyrimidin-4-yl)-5-{[(2S,5R)-4-(2-methoxyethyl)-2,5-dimethylpiperazin-1-yl]carbonyl}-6,6-dimethyl-1,4,5,6-tetrahydropyrrolo[3,4-c]pyrazol-3-amine] | 3.33
22 | CCc1ncc(F)c(Nc2n[nH]c3c2CN(C(=O)N2C[C@@H](C)N(C)C[C@@H]2C)C3(C)C)n1 [Example E1, N-(2-ethyl-5-fluoropyrimidin-4-yl)-6,6-dimethyl-5-{[(2S,5R)-2,4,5-trimethylpiperazin-1-yl]carbonyl}-1,4,5,6-tetrahydropyrrolo[3,4-c]pyrazol-3-amine acetate salt] | 10.5
23 | COCCCOc1ncc(F)c(Nc2n[nH]c3c2CN(C(=O)C2(F)CCN(C)CC2)C3(C)C)n1 [Example L3, N-[5-fluoro-2-(3-methoxypropoxy)pyrimidin-4-yl]-5-[(4-fluoro-1-methylpiperidin-4-yl)carbonyl]-6,6-dimethyl-1,4,5,6-tetrahydropyrrolo[3,4-c]pyrazol-3-amine] | 58.6
24 | COc1ccnc(Nc2n[nH]c3c2CN(C(=O)N2C[C@@H](C)N(CC4CCOCC4)C[C@@H]2C)C3(C)C)n1 [Example J14, 5-{[(2S,5R)-2,5-dimethyl-4-(tetrahydro-2H-pyran-4-ylmethyl)piperazin-1-yl]carbonyl}-N-(4-methoxypyrimidin-2-yl)-6,6-dimethyl-1,4,5,6-tetrahydropyrrolo[3,4-c]pyrazol-3-amine] | 19.2
25 | CC[C@H]1CN(C(=O)N2Cc3c(Nc4nc(C)ncc4F)n[nH]c3C2(C)C)CCN1C [Example H4, 5-{[(3S)-3-ethyl-4-methylpiperazin-1-yl]carbonyl}-N-(5-fluoro-2-methylpyrimidin-4-yl)-6,6-dimethyl-1,4,5,6-tetrahydropyrrolo[3,4-c]pyrazol-3-amine] | 86
26 | COCc1ncc(F)c(Nc2n[nH]c3c2CN(C(=O)N2CC(CCO)N(C)C[C@@H]2C)C3(C)C)n1 (single isomer, unassigned) [Example N2] | < 10
27 | COCCCOc1ncc(F)c(Nc2n[nH]c3c2CN(C(=O)N2C[C@@H](C)N(C)C[C@@H]2C)C3(C)C)n1 [Example K10, N-[5-fluoro-2-(3-methoxypropoxy)pyrimidin-4-yl]-6,6-dimethyl-5-{[(2S,5R)-2,4,5-trimethylpiperazin-1-yl]carbonyl}-1,4,5,6-tetrahydropyrrolo[3,4-c]pyrazol-3-amine] | 28.4
